Results published in ChEMBL document CHEMBL3885881, “DrugMatrix”.

Species: Rattus norvegicus
Assay: DrugMatrix - Regimen: Daily Repeat
Assay type: toxicity, organism-based, Sprague-Dawley
Set-up: regimen Daily Repeat, gender Male, age 6-8 weeks
Conditions: in vivo, po, route oral GAVAGE, […]; for ABSOLUTE BASOPHIL / ABSOLUTE EOSINOPHIL / ABSOLUTE LYMPHOCYTE / ABSOLUTE MONOCYTE / ABSOLUTE SEGMENTED NEUTROPHIL / BASOPHIL / EOSINOPHIL / ERYTHROCYTE COUNT / HEMATOCRIT / HEMOGLOBIN / LEUKOCYTE COUNT / LYMPHOCYTE / MEAN CORPUSCULAR HEMOGLOBIN / MEAN CORPUSCULAR HEMOGLOBIN CONCENTRATION / MEAN CORPUSCULAR VOLUME / MONOCYTE / NEUTROPHIL / NUCLEATED RED BLOOD CELLS / PLATELET COUNT: tissue Blood; for ALANINE AMINOTRANSFERASE / ALBUMIN / ALKALINE PHOSPHATASE / ASPARTATE AMINOTRANSFERASE / BLOOD UREA NITROGEN / CARBON DIOXIDE / CHLORIDE / CHOLESTEROL / CREATINE PHOSPHOKINASE / CREATININE / GLUCOSE / LACTATE DEHYDROGENASE / LIPASE / PHOSPHORUS / POTASSIUM / SODIUM / TOTAL BILIRUBIN / TOTAL PROTEIN / URIC ACID: tissue Plasma
[1] = 4 mg/kg, 120 h, dose level Low, time 5 day
[2] = 63 mg/kg, 72 h, dose level High, time 3 day
[3] = 63 mg/kg, 120 h, dose level High, time 5 day

## CSc1ccc2c(c1)N(CCC1CCCCN1C)c1ccccc1S2 (centres undefined) [THIORIDAZINE]
[1]
  ABSOLUTE BASOPHIL: 0 CELLS/uL
  ABSOLUTE EOSINOPHIL: 185.33 CELLS/uL
  ABSOLUTE LYMPHOCYTE: 12393.33 CELLS/uL
  ABSOLUTE MONOCYTE: 143.33 CELLS/uL
  ABSOLUTE SEGMENTED NEUTROPHIL: 1078 CELLS/uL
  BASOPHIL: 0%
  EOSINOPHIL: 1.33%
  ERYTHROCYTE COUNT: 6.21 x10E6/uL
  HEMATOCRIT: 39.13%
  HEMOGLOBIN: 14.43 G/DL
  LEUKOCYTE COUNT: 13.8 x10E3/uL
  LYMPHOCYTE: 90%
  MEAN CORPUSCULAR HEMOGLOBIN: 23.27 pg
  MEAN CORPUSCULAR HEMOGLOBIN CONCENTRATION: 36.87 G/DL
  MEAN CORPUSCULAR VOLUME: 63.13 fL
  MONOCYTE: 1%
  NEUTROPHIL: 7.67%
  NUCLEATED RED BLOOD CELLS: 0.33 /100WBC
  PLATELET COUNT: 1375 x10E3/uL
  ALANINE AMINOTRANSFERASE: 42.67 u/L
  ALBUMIN: 4.4 G/DL
  ALKALINE PHOSPHATASE: 474.67 u/L
  ASPARTATE AMINOTRANSFERASE: 94.67 u/L
  BLOOD UREA NITROGEN: 17.67 mg/dL
  CARBON DIOXIDE: 24.33 mmol/L
  CHLORIDE: 103.67 MEQ/L
  CHOLESTEROL: 48.67 mg/dL
  CREATINE PHOSPHOKINASE: 499.33 u/L
  CREATININE: 0.19 mg/dL
  GLUCOSE: 188 mg/dL
  LACTATE DEHYDROGENASE: 405 u/L
  LIPASE: 9.33 u/L
  PHOSPHORUS: 12.77 mg/dL
  POTASSIUM: 5.85 MEQ/L
  SODIUM: 141.6 MEQ/L
  TOTAL BILIRUBIN: 0.1 mg/dL
  TOTAL PROTEIN: 6.63 G/DL
  URIC ACID: 2.07 mg/dL
[2]
  ABSOLUTE BASOPHIL: 0 CELLS/uL
  ABSOLUTE EOSINOPHIL: 50 CELLS/uL
  ABSOLUTE LYMPHOCYTE: 8382 CELLS/uL
  ABSOLUTE MONOCYTE: 59.67 CELLS/uL
  ABSOLUTE SEGMENTED NEUTROPHIL: 575 CELLS/uL
  BASOPHIL: 0%
  EOSINOPHIL: 0.67%
  ERYTHROCYTE COUNT: 5.2 x10E6/uL
  HEMATOCRIT: 32.73%
  HEMOGLOBIN: 12.73 G/DL
  LEUKOCYTE COUNT: 9.07 x10E3/uL
  LYMPHOCYTE: 92.33%
  MEAN CORPUSCULAR HEMOGLOBIN: 24.53 pg
  MEAN CORPUSCULAR HEMOGLOBIN CONCENTRATION: 38.9 G/DL
  MEAN CORPUSCULAR VOLUME: 63.07 fL
  MONOCYTE: 0.67%
  NEUTROPHIL: 6.33%
  NUCLEATED RED BLOOD CELLS: 0 /100WBC
  PLATELET COUNT: 1257.67 x10E3/uL
  ALANINE AMINOTRANSFERASE: 49.33 u/L
  ALBUMIN: 4.2 G/DL
  ALKALINE PHOSPHATASE: 379.33 u/L
  ASPARTATE AMINOTRANSFERASE: 77.67 u/L
  BLOOD UREA NITROGEN: 16 mg/dL
  CARBON DIOXIDE: 28.67 mmol/L
  CHLORIDE: 104.67 MEQ/L
  CHOLESTEROL: 74.33 mg/dL
  CREATINE PHOSPHOKINASE: 301.33 u/L
  CREATININE: 0.2 mg/dL
  GLUCOSE: 164 mg/dL
  LACTATE DEHYDROGENASE: 99.33 u/L
  LIPASE: 9 u/L
  PHOSPHORUS: 10.9 mg/dL
  POTASSIUM: 5.63 MEQ/L
  SODIUM: 146.33 MEQ/L
  TOTAL BILIRUBIN: 0.17 mg/dL
  TOTAL PROTEIN: 6 G/DL
  URIC ACID: 1.13 mg/dL
[3]
  ABSOLUTE BASOPHIL: 0 CELLS/uL
  ABSOLUTE EOSINOPHIL: 0 CELLS/uL
  ABSOLUTE LYMPHOCYTE: 12825 CELLS/uL
  ABSOLUTE MONOCYTE: 117.67 CELLS/uL
  ABSOLUTE SEGMENTED NEUTROPHIL: 1290.67 CELLS/uL
  BASOPHIL: 0%
  EOSINOPHIL: 0%
  ERYTHROCYTE COUNT: 5.78 x10E6/uL
  HEMATOCRIT: 35.33%
  HEMOGLOBIN: 13.37 G/DL
  LEUKOCYTE COUNT: 14.23 x10E3/uL
  LYMPHOCYTE: 90.33%
  MEAN CORPUSCULAR HEMOGLOBIN: 23.13 pg
  MEAN CORPUSCULAR HEMOGLOBIN CONCENTRATION: 37.87 G/DL
  MEAN CORPUSCULAR VOLUME: 61.23 fL
  MONOCYTE: 1%
  NEUTROPHIL: 8.67%
  NUCLEATED RED BLOOD CELLS: 0.33 /100WBC
  PLATELET COUNT: 1309.67 x10E3/uL
  ALANINE AMINOTRANSFERASE: 52.33 u/L
  ALBUMIN: 4 G/DL
  ALKALINE PHOSPHATASE: 520 u/L
  ASPARTATE AMINOTRANSFERASE: 97.33 u/L
  BLOOD UREA NITROGEN: 13.67 mg/dL
  CARBON DIOXIDE: 23.33 mmol/L
  CHLORIDE: 106.33 MEQ/L
  CHOLESTEROL: 55 mg/dL
  CREATINE PHOSPHOKINASE: 913 u/L
  CREATININE: 0.19 mg/dL
  GLUCOSE: 175.33 mg/dL
  LACTATE DEHYDROGENASE: 124.33 u/L
  LIPASE: 8.67 u/L
  PHOSPHORUS: 11.6 mg/dL
  POTASSIUM: 5.22 MEQ/L
  SODIUM: 144.53 MEQ/L
  TOTAL BILIRUBIN: 0.17 mg/dL
  TOTAL PROTEIN: 5.87 G/DL
  URIC ACID: 1.37 mg/dL
